Experiment: in vitro
Conditions: human, hela cells, % viability

SMILES | viability at 28.5 h, 10 µM
Cc1ccc(OCc2occc2C(=O)N2CCCC3(CCOC3)C2)cc1 (stereo not drawn) [CBK307532] | 89.4%
CC(NC(=O)N1CCCN(Cc2ccccn2)CC1)c1cnn(C)c1 (stereo not drawn) [CBK307537] | 102%
CC(C)CCN1CCn2nc(CNc3cnccn3)cc2C1 [CBK307540] | 85.8%
CCc1nc2c(N3CCCn4nc(C(O)C5CC5)cc4C3)ncnc2o1 (stereo not drawn) [CBK307543] | 78.6%
CCCn1ncnc1C(C)NC(=O)Nc1ccnn1CC(C)C (stereo not drawn) [CBK307545] | 116%
COc1cccc(C2CC(=O)Nc3c2c(=O)nc(SC)n3C)c1 (stereo not drawn) [CBK307546] | 104%
CCCNS(=O)(=O)c1cc2c3c(c1)c(C)cc(=O)n3CCC2 [CBK307547] | 97.1%
CO[C@@]12CC[C@@H](OCC(=O)O)C[C@@H]1N(Cc1ccccc1C)CC2 [CBK307548] | 104%
CC(=O)N1CCN(C(=O)Cn2ccc3ccccc32)CC(O)C1 (stereo not drawn) [CBK307552] | 98.1%
COc1nccc(N2CCCC(CO)(CC3CC3)C2)c1C#N (stereo not drawn) [CBK307553] | 89.3%
Cc1cc(C)n(CCn2cc(-c3ncc[nH]3)nn2)c(=O)n1 [CBK307554] | 83.1%
COC(=O)Cn1c(C(C)(C)C)cn2c3c(=O)n(C)c(=O)n(C)c3nc12 [CBK307555] | 84.3%
Cc1cnn(C(C)C(=O)N2CCc3c(nc(N(C)C)nc3N(C)C)C2)c1 (stereo not drawn) [CBK307556] | 109%
COc1cncc(C(NC(=O)Cn2ccccc2=O)[C@H]2C[C@@H](O)C2)c1 (stereo partly drawn) [CBK307557] | 92.5%
O=C(c1cnc[nH]1)N1CCn2nc(C(O)Cc3ccccc3)cc2C1 (stereo not drawn) [CBK307558] | 109%
Cc1c(C)n(Cc2ccco2)c2ncnc(NC(C)C(=O)O)c12 (stereo not drawn) [CBK307561] | 106%
Cc1c(C)n(Cc2ccco2)c2ncnc(NCCC(=O)O)c12 [CBK307564] | 86.8%
CCOCCn1c(=O)c2c(nc3oc(C(C)(C)C)cn32)n(C)c1=O [CBK307567] | 103%
Cc1c(C)n(Cc2ccco2)c2ncnc(SCCC(=O)O)c12 [CBK307569] | 105%
CNC(=O)CN(C)C(=O)c1coc(COc2ccc3sc(C)nc3c2)n1 [CBK307571] | 83.1%
COc1cccc(C(=O)NCCC(=O)N2CCc3ccccc3C2)c1 [CBK307575] | 84.3%
COc1ccc(CNC(=O)c2cc(S(=O)(=O)N3CCCC3)cs2)cc1 [CBK307576] | 93.6%
NC(=O)c1c(NC(=O)NCc2cccnc2)sc2c1CCC2 [CBK307578] | 70.3%

SMILES | viability at 28.5 h, 10 µM
Cn1cnc2cc(NC(=O)NCCN3CCCC(CO)C3)ccc21 (stereo not drawn) [CBK307582] | 107%
O=C(NCCc1ccccc1)C1CCN(C(=O)c2cccc(F)c2)CC1 [CBK307583] | 82.2%
Cn1cnnc1CCC(=O)NCC1CCN(c2ccccc2F)C1 (stereo not drawn) [CBK307587] | 76.5%
Cc1nnc(NC(=O)C2CCN(C(=O)c3cccc(F)c3)CC2)s1 [CBK307588] | 93.2%
COc1ccc(CNC(=O)c2cc(S(=O)(=O)N3CCCCC3)cs2)cc1 [CBK307590] | 85.9%
CCOC(=O)c1c(NC(=O)NCc2ccncc2)sc2c1CCC2 [CBK307591] | 81.6%
c1cnc(NCc2cc3n(n2)CCN(CC2CCCCC2)C3)cn1 [CBK307592] | 80%
CC(C)n1cc(C(=O)NCc2cccnc2N(C)C2CCCCC2)cn1 [CBK307593] | 105%
Cc1c(C)n(Cc2ccco2)c2ncnc(N3CCC(C(=O)O)CC3)c12 [CBK307599] | 99.1%
CCCCc1ccc(-c2nccn2CC2CN(C(C)=O)CCO2)s1 (stereo not drawn) [CBK307600] | 110%
Cc1nc(N2CCOCC2)cc(N2CCN(C(=O)C3CCCC3)CC2)n1 [CBK307602] | 87.5%
Cc1ccc2c(c1)C(NC(=O)C1CCN(S(C)(=O)=O)CC1)CC(C)(C)O2 (stereo not drawn) [CBK307604] | 109%
COCC1(C(=O)N2CC(=O)N(c3ccc(C)cc3)CC2C)CCC1 (stereo not drawn) [CBK307606] | 89.1%
CCCNC(=O)c1ccc(NC(=O)NC(CC)c2ccnn2C)c(C)c1 (stereo not drawn) [CBK307608] | 104%
Cc1cc(C)n(Cc2cc(C(=O)NCC(C)Oc3cccnc3)n[nH]2)n1 (stereo not drawn) [CBK307609] | 85.9%
COCCNC(=O)c1cc2n(n1)C(C(F)(F)F)CC(c1ccccc1)N2 (stereo not drawn) [CBK307610] | 114%
CSc1ncc(CNC(=O)C2CCOc3ccccc3C2)n1C (stereo not drawn) [CBK307611] | 82.5%
Cc1scnc1CN1CCn2nc(C(O)Cc3ccccc3)cc2C1 (stereo not drawn) [CBK307612] | 90.9%
Cc1cc(C)n(-c2ccc3nnc(CCC(=O)O)n3n2)n1 [CBK307616] | 97%
CCCc1cc(C(=O)N2CCNCC2C(=O)N2CCN(C)CC2)ccn1 (stereo not drawn) [CBK307619] | 97.5%
Cc1c(-c2cccc(C(=O)N(CCO)C3CCS(=O)(=O)C3)c2)cnn1C (stereo not drawn) [CBK307621] | 86.5%
Cc1nc(NC(=O)Cn2nc(N3CCSCC3)ccc2=O)sc1C [CBK307622] | 98.3%
O=C(Cn1nc(N2CCSCC2)ccc1=O)Nc1ccccc1 [CBK307623] | 97.2%

SMILES | viability at 28.5 h, 10 µM
Cc1cc(OCC(=O)N2CCNC(=O)C2)c2c(C)c(C)c(=O)oc2c1 [CBK307624] | 94.7%
CC(=O)c1cccc(NC(=O)Cn2nc(N3CCSCC3)ccc2=O)c1 [CBK307625] | 102%
CCOC(=O)c1cnc2ccc(Cl)cc2c1N1CCOCC1 [CBK307627] | 99.2%
Cc1cc(C)n(-c2ccc3nnc(CCCC(=O)O)n3n2)n1 [CBK307630] | 87.1%
COc1ccc2c(c1)C(NC(=O)C1CCCN(C)C1)CC(C)(C)O2 (stereo not drawn) [CBK307631] | 113%
CCOc1ccc(NC(=O)N(CCO)Cc2nccn2C)cc1C#N [CBK307634] | 82.6%
COCCN1CCN(C(=O)NCCc2c(C)[nH]c3ccc(Cl)cc23)CC1 [CBK307637] | 85%
CCn1nc(CO)c2c1CCN(CC(=O)NCc1cccs1)C2 [CBK307638] | 92.8%
Cc1cccn2c(CN3CCC(O)CC3)c(C(=O)N3CCCCC3)nc12 [CBK307639] | 104%
CN1CCN(CC2(Cn3ccnc3-c3ccc(C(=O)O)cc3)CC2)CC1 [CBK307641] | 75.1%
CSc1cccc(CN2C[C@H]3CN(C(=O)C4CCC4)C[C@@]3(C(=O)O)C2)c1 [CBK307645] | 88.4%
COc1cncc(C(NC(=O)c2ccc3c(c2)CCC3)[C@H]2C[C@H](O)C2)c1 (stereo partly drawn) [CBK307646] | 105%
Cc1cc(C)n(CC(=O)N[C@H]2CC[C@H]2N)c(=O)n1 [CBK307647] | 91.9%
Cc1ncccc1OC1(C(=O)NCc2cn3c(n2)SCC3)CCNCC1 [CBK307649] | 103%
Cc1nc(CCNC(=O)N(Cc2cnn(C)c2)C2CC2)nc2c1CCC2 [CBK307650] | 86.1%
Cc1cc(=O)[nH]c(CCNc2cc([C@H]3C[C@@H](N)C3)nc(C3CC3)n2)n1 [CBK307651] | 103%
CN1CCCCCC1c1nc(-c2ccccc2)nn1CCCO (stereo not drawn) [CBK307653] | 95.9%
CCOC(=O)C1(Cc2ccc(F)cc2F)CCCN(S(=O)(=O)CC)C1 (stereo not drawn) [CBK307655] | 92.6%
CCCN1CC2(CCN(Cc3nccn3C)CC2)CC1C(=O)O (stereo not drawn) [CBK307658] | 83.2%
Cc1ccc(-c2noc(C(C)NC(=O)C3(Cn4ccnc4)CC3)n2)cc1 (stereo not drawn) [CBK307661] | 113%
CCCn1cnnc1CN(C)C(=O)NCCc1nc2ccccc2s1 [CBK307663] | 98.2%
CCCN1CC(NS(=O)(=O)c2ccc3oc(=O)n(C)c3c2)CC1=O (stereo not drawn) [CBK307664] | 92.6%
CC(c1ccncn1)N(C)C(=O)NCc1cccc(CN(C)C)c1 (stereo not drawn) [CBK307667] | 89.9%

SMILES | viability at 28.5 h, 10 µM
CCc1nc(CCn2ccc3nc(OC)c(C#N)cc3c2=O)no1 [CBK307668] | 94.1%
Cn1ncnc1CCNC(=O)N1CCCN(Cc2cccs2)CC1 [CBK307670] | 95.8%
CN(CC1COCCO1)C(=O)c1cc(Cn2ccc3ccccc32)[nH]n1 (stereo not drawn) [CBK307673] | 111%
Cc1nc(C2CC(O)C2)cc(N2CCC(C(=O)N3CCOCC3)CC2)n1 (stereo not drawn) [CBK307675] | 102%
COc1nccc(N2CCN(C)C3(CCNC(=O)CC3)C2)c1C#N (stereo not drawn) [CBK307676] | 116%
CSc1ncc(C(=O)N2CCN3CCN(C)CC3C2)c(=O)[nH]1 (stereo not drawn) [CBK307677] | 104%
O=c1cc(N2CCCCC2)cnn1Cc1nccs1 [CBK307678] | 87.4%
Cc1c(C(=O)NC2CCN(c3ncccc3C#N)CC2)ccn1C [CBK307681] | 103%
COCCNc1cc(-c2cccc(F)c2C(N)=O)c2cc[nH]c2n1 [CBK307682] | 94.2%
Cc1nc2cc(OCc3nc(C(=O)N(CCO)CCO)co3)ccc2s1 [CBK307684] | 89.9%
COc1ccc(Cc2nc(C3CC3)n(CC(F)(F)F)n2)cc1 [CBK307686] | 94.9%
Cc1ccc2[nH]c(CN3CCC(O)C3)cc(=O)c2c1 (stereo not drawn) [CBK307690] | 91.5%
Cn1ncc(N2CCC(CNC(=O)COc3cccc(F)c3)C2)cc1=O (stereo not drawn) [CBK307692] | 87.1%
Cc1ccc2cc(CN3CCCC(N)CC3)c(N3CCOCC3)nc2c1 (stereo not drawn) [CBK307693] | 83.5%
CCn1ccc(C(=O)NC(c2cncc(OC)c2)[C@H]2C[C@@H](O)C2)cc1=O (stereo partly drawn) [CBK307696] | 110%
COCCn1c(CO)nnc1[C@H]1C[C@@H](NC(=O)c2cc(O)ccc2F)C1 [CBK307698] | 90.4%
Cc1ccc(F)c(CN2CCN(CCO)[C@@H]3CS(=O)(=O)C[C@@H]32)c1 [CBK307699] | 93.6%
CC(C)N(C(=O)c1ccccc1-c1cnn2cccnc12)C(C)C [CBK307701] | 85.4%
CNc1ncc(CN(C)C(=O)Cn2nc(C)c3ccccc3c2=O)cn1 [CBK307704] | 85.5%
COCCN(CCOC)C(=O)Nc1ccc(F)c(NC(C)=O)c1 [CBK307705] | 98.2%
CCOCc1nc2c(c(NCCn3cccn3)n1)CCN(C(C)=O)CC2 [CBK307707] | 98.3%

From article PMC12040169 (PLOS Biology, 2025)
